Measurements reported in the NIST ThermoML archive (doi:10.1021/acs.jced.6b00221).

Tests used:
[1] = Liquid, Ebulliometric method (Recirculating still)
[2] = Boiling temperature at pressure P; conditions: Liquid, Ebulliometric method (Recirculating still)

CCOC(C)=O [ethyl acetate]
Conditions	Boiling temperature at pressure P [°C]	vapor or sublimation pressure [kPa]
[1], 330.41 K	–	50
[1], 349.7 K	–	100
[1], 362.48 K	–	150
[2], 54.99 kPa	59.67	–
[2], 59.98 kPa	62.01	–
[2], 70 kPa	66.27	–
[2], 75 kPa	67.77	–
[2], 80 kPa	70.03	–
[2], 84.99 kPa	71.78	–
[2], 89.91 kPa	73.43	–
[2], 95.01 kPa	75.1	–
[2], 101.33 kPa	77.01	–
[2], 104.99 kPa	78.11	–
[2], 109.98 kPa	79.52	–
[2], 119.9 kPa	82.21	–
[2], 124.98 kPa	83.47	–
[2], 129.93 kPa	84.71	–
[2], 134.95 kPa	85.93	–
[2], 139.96 kPa	87.09	–
[2], 149.95 kPa	89.33	–
[2], 154.97 kPa	90.41	–
[2], 159.96 kPa	91.5	–
[2], 164.99 kPa	92.49	–
[2], 174.99 kPa	94.46	–
[2], 180 kPa	95.43	–
[2], 185 kPa	96.4	–

CC(=O)OCCC(C)C [3-methylbutyl ethanoate]
Conditions	Boiling temperature at pressure P [°C]	vapor or sublimation pressure [kPa]
[1], 413.99 K	–	100
[2], 20 kPa	92.14	–
[2], 29.98 kPa	102.91	–
[2], 40.01 kPa	111.16	–
[2], 49.99 kPa	117.92	–
[2], 60 kPa	123.61	–
[2], 70 kPa	128.57	–
[2], 80.01 kPa	133.03	–
[2], 90 kPa	137.09	–
[2], 100.01 kPa	140.8	–
[2], 110 kPa	144.00	–
[2], 119.99 kPa	147.28	–
[2], 130 kPa	150.31	–
[2], 139.99 kPa	153.18	–
[2], 149.99 kPa	155.90	–
[2], 160.01 kPa	158.46	–

CC(=O)OCC(C)C [2-methylpropyl ethanoate]
Conditions	Boiling temperature at pressure P [°C]	vapor or sublimation pressure [kPa]
[1], 367.51 K	–	50
[1], 388.93 K	–	100
[1], 389.37 K	–	100
[1], 403.22 K	–	150
[1], 403.64 K	–	150
[2], 39.99 kPa	88	–
[2], 49.98 kPa	94.26	–
[2], 59.99 kPa	99.74	–
[2], 70 kPa	104.24	–
[2], 80 kPa	108.43	–
[2], 90 kPa	112.39	–
[2], 100 kPa	116.22	–
[2], 110 kPa	119.20	–
[2], 120 kPa	122.11	–
[2], 130 kPa	125.01	–
[2], 140 kPa	127.69	–
[2], 150 kPa	130.49	–
